This is an account of results in ChEMBL document CHEMBL5576067, “Synthesis and biological evaluation of novel 1,2,3,4-tetrahydro-β-carboline derivatives as potential antibacterial agents” (Bioorg Med Chem Lett, 2024).

What all share (type): functional
The nature of test [1]: Antibacterial activity against Pseudomonas syringae pv. actinidiae assessed as inhibition of bacterial growth incubated for 24 hrs by broth microdilution method. (In general: Dilution methods test growth across graded concentrations, often in twofold steps.)
Test [2] deals with Enterococcus faecium. In words: Antibacterial activity against vancomycin-resistant Enterococcus faecium ATCC 700221 assessed as inhibition of bacterial growth incubated for 24 hrs by broth microdilution method.
The subject of test [3] is Staphylococcus aureus. In words: Antibacterial activity against methicillin resistant Staphylococcus aureus ATCC33591 assessed as inhibition of bacterial growth incubated for 24 hrs by broth microdilution method.
The subject of test [4] is Staphylococcus aureus. Briefly: Antibacterial activity against Staphylococcus aureus ATCC25923 assessed as inhibition of bacterial growth incubated for 24 hrs by broth microdilution method.
In test [5] the test system is Ralstonia solanacearum. Briefly: Antibacterial activity against Ralstonia solanacearum assessed as inhibition of bacterial growth incubated for 24 hrs by broth microdilution method.
The subject of test [6] is Escherichia coli. Briefly: Antibacterial activity against Escherichia coli ATCC25922 assessed as inhibition of bacterial growth incubated for 24 hrs by broth microdilution method.

Values after ≈ are worked out from the molar mass of the structure shown.

With `COC(=O)c1ccc(C(=O)Nc2ccc(C3c4[nH]c5ccccc5c4CCN3C)cc2)cc1` (stereo not given), the MIC – broadly, the smallest concentration in the dilution series that meets the test's criterion for growth inhibition – is 32 µg/mL (≈ 72.8 µM) in test [1]; over 128 µg/mL in test [2]; 32 µg/mL (≈ 72.8 µM) in test [3]; 64 µg/mL (≈ 146 µM) in test [4]; 128 µg/mL (≈ 291 µM) in test [5]; 128 µg/mL (≈ 291 µM) in test [6].
Turning to `O=C(Nc1ccc(C2NCCc3c2[nH]c2ccccc32)cc1)c1cccc([N+](=O)[O-])c1` (stereo not given), the minimum inhibitory concentration (MIC) in test [1] is 32 µg/mL (≈ 77.6 µM); in test [2], over 128 µg/mL; in test [3], 16 µg/mL (≈ 38.8 µM); in test [4], 8 µg/mL (≈ 19.4 µM); in test [5] it was 16 µg/mL (≈ 38.8 µM); in test [6], 16 µg/mL (≈ 38.8 µM).
As to `O=C(Nc1ccc(C2NCCc3c2[nH]c2ccccc32)cc1)c1cccc(Cl)c1` (stereo not given), the MIC in test [1] was 64 µg/mL (≈ 159 µM); in test [2], over 128 µg/mL; in test [3], 8 µg/mL (≈ 19.9 µM); in test [4] it was 16 µg/mL (≈ 39.8 µM); in test [5], 8 µg/mL (≈ 19.9 µM); in test [6], 8 µg/mL (≈ 19.9 µM).
Turning to `CN1CCc2c([nH]c3ccccc23)C1c1ccc(NC(=O)c2ccccc2F)cc1` (stereo not given), the MIC was 32 µg/mL (≈ 80.1 µM) in test [1]; over 128 µg/mL in test [2]; 32 µg/mL (≈ 80.1 µM) in test [3]; 64 µg/mL (≈ 160 µM) in test [4]; 128 µg/mL (≈ 320 µM) in test [5]; 64 µg/mL (≈ 160 µM) in test [6].
As to `CN1CCc2c([nH]c3ccccc23)C1c1ccc(NC(=O)c2ccccc2)cc1` (stereo not given), the MIC in test [1] is 64 µg/mL (≈ 168 µM); in test [2], over 128 µg/mL; in test [3], 128 µg/mL (≈ 336 µM); in test [4], 128 µg/mL (≈ 336 µM); in test [5], 128 µg/mL (≈ 336 µM); in test [6], 128 µg/mL (≈ 336 µM).
Regarding `Cc1ccccc1C(=O)Nc1ccc(C2NCCc3c2[nH]c2ccccc32)cc1` (stereo not given), the MIC is 128 µg/mL (≈ 336 µM) in test [1]; over 128 µg/mL in test [2]; 32 µg/mL (≈ 83.9 µM) in test [3]; 32 µg/mL (≈ 83.9 µM) in test [4]; 128 µg/mL (≈ 336 µM) in test [5]; 64 µg/mL (≈ 168 µM) in test [6].
With `CN1CCc2c([nH]c3ccccc23)C1c1ccc(NC(=O)c2ccc(C(F)(F)F)cc2)cc1` (stereo not given), the MIC was determined as 32 µg/mL (≈ 71.2 µM) in test [1]; 128 µg/mL (≈ 285 µM) in test [2]; 8 µg/mL (≈ 17.8 µM) in test [3]; 8 µg/mL (≈ 17.8 µM) in test [4]; 16 µg/mL (≈ 35.6 µM) in test [5]; 16 µg/mL (≈ 35.6 µM) in test [6].
Turning to `COC(=O)c1ccc(C(=O)Nc2ccc(C3NCCc4c3[nH]c3ccccc43)cc2)cc1` (stereo not given), the MIC was 16 µg/mL (≈ 37.6 µM) in test [1]; over 128 µg/mL in test [2]; 32 µg/mL (≈ 75.2 µM) in test [3]; 16 µg/mL (≈ 37.6 µM) in test [4]; 16 µg/mL (≈ 37.6 µM) in test [5]; 16 µg/mL (≈ 37.6 µM) in test [6].
Take `Cc1cccc(C(=O)Nc2ccc(C3NCCc4c3[nH]c3ccccc43)cc2)c1` (stereo not given): the minimal inhibitory concentration (MIC) in test [1] was 32 µg/mL (≈ 83.9 µM); in test [2] it was over 128 µg/mL; in test [3] it was 64 µg/mL (≈ 168 µM); in test [4], 32 µg/mL (≈ 83.9 µM); in test [5], 32 µg/mL (≈ 83.9 µM); in test [6], 32 µg/mL (≈ 83.9 µM).
Turning to `CN1CCc2c([nH]c3ccccc23)C1c1ccc(NC(=O)c2ccc([N+](=O)[O-])cc2)cc1` (stereo not given), the MIC is 32 µg/mL (≈ 75 µM) in test [1]; over 128 µg/mL in test [2]; 16 µg/mL (≈ 37.5 µM) in test [3]; 32 µg/mL (≈ 75 µM) in test [4]; 32 µg/mL (≈ 75 µM) in test [5]; 32 µg/mL (≈ 75 µM) in test [6].
Consider `O=C(Nc1ccc(C2NCCc3c2[nH]c2ccccc32)cc1)c1cccc(C(F)(F)F)c1` (stereo not given), for which the MIC in test [1] came out at 32 µg/mL (≈ 73.5 µM); in test [2] it was 128 µg/mL (≈ 294 µM); in test [3], 4 µg/mL (≈ 9.19 µM); in test [4] it was 8 µg/mL (≈ 18.4 µM); in test [5] it was 16 µg/mL (≈ 36.7 µM); in test [6], 8 µg/mL (≈ 18.4 µM).
For `O=C(Nc1ccc(C2NCCc3c2[nH]c2ccccc32)cc1)c1cc(C(F)(F)F)cc(C(F)(F)F)c1` (stereo not given), the MIC in test [1] was 64 µg/mL (≈ 127 µM); in test [2] it was over 128 µg/mL; in test [3] it was 16 µg/mL (≈ 31.8 µM); in test [4] it was 16 µg/mL (≈ 31.8 µM); in test [5], 128 µg/mL (≈ 254 µM); in test [6] it was 128 µg/mL (≈ 254 µM).
Consider `O=C(Nc1ccc(C2NCCc3c2[nH]c2ccccc32)cc1)c1ccccc1F` (stereo not given), for which the MIC in test [1] is 64 µg/mL (≈ 166 µM); in test [2] it was over 128 µg/mL; in test [3] it was 32 µg/mL (≈ 83 µM); in test [4], 32 µg/mL (≈ 83 µM); in test [5] it was 128 µg/mL (≈ 332 µM); in test [6], 64 µg/mL (≈ 166 µM).
Regarding `CN1CCc2c([nH]c3ccccc23)C1c1ccc(NC(=O)c2cccc([N+](=O)[O-])c2)cc1` (stereo not given), the MIC in test [1] is over 128 µg/mL; in test [2], over 128 µg/mL; in test [3] it was 64 µg/mL (≈ 150 µM); in test [4], 64 µg/mL (≈ 150 µM); in test [5], 64 µg/mL (≈ 150 µM); in test [6], 64 µg/mL (≈ 150 µM).
For `O=C(Nc1ccc(C2NCCc3c2[nH]c2ccccc32)cc1)c1cccc(F)c1` (stereo not given), the MIC is 32 µg/mL (≈ 83 µM) in test [1]; over 128 µg/mL in test [2]; 4 µg/mL (≈ 10.4 µM) in test [3]; 16 µg/mL (≈ 41.5 µM) in test [4]; 8 µg/mL (≈ 20.8 µM) in test [5]; 16 µg/mL (≈ 41.5 µM) in test [6].
